Patent US8501237B2, “Formulations of water insoluble or poorly water soluble drugs in lipidated glycosaminoglycan particles and their use for diagnostics and therapy” (Tel-Aviv University Future Technology Development L.P., priority 2004, dated 2013)
Where two headings read alike, the source gives them in different places.

Legend:
B16F10.9 cells = assay: Cytotoxicity in vitro (MTT or SRB), B16F10.9; assay type: cell-based, mouse
Description: (§1) Cytotoxicity of paclitaxel and of gagomer-encapsulated paclitaxel was evaluated over a matrix of drug-gagomer formulations (see Examples 1, 2 and 3), cell lines and treatment protocols, for the drug concentration range spanning from 1 nM to 100 μM.
(§2) Twenty four hours prior to an experiment, cells of the desired line were seeded onto 96-well multiwell culture plates at densities in the range of 5×10^3 cells/well. The experiments were initiated on sub-confluent monolayers. Two protocols were used:
(§3) (I) Short protocol. The cells were incubated with the treatment media for 4 hours, at the end of which the treatment media was aspirated, the cells washed and incubated for 44 hours in drug-free serum-supplemented cell growth media. Termination was 48 hours from start.
(§4) (II) Long protocol: the cells were incubated in the treatment media for 48 hours. Upon termination, in either protocol, cell viability was determined in each well using either the MTT or the SRB assay method.
(§5) The rationale for the two protocols, the long and the short, is as follows: The long protocol is the traditional one used for in vitro comparisons of cytotoxicity among different drug formulations. The cells are incubated with the treatment formulations for periods usually within the 24-72 hour time span, and all formulations are incubated for the same time. […]

D122 cells = assay: Cytotoxicity in vitro (MTT or SRB), D122; assay type: cell-based; conditions: Mus musculus
Description: as §1, §2, §3, §4, §5

C-26 cells = assay: Cytotoxicity in vitro (MTT or SRB), C-26; assay type: cell-based; conditions: Mus musculus
Description: as §1, §2, §3, §4, §5

PANC-1 cells = assay: Cytotoxicity in vitro (MTT or SRB), PANC-1; assay type: cell-based; conditions: Homo sapiens
Description: as §1, §2, §3, §4, §5

SNU-251 cells = assay: Cytotoxicity in vitro (MTT or SRB), SNU-251; assay type: cell-based; conditions: Homo sapiens
Description: as §1, §2, §3, §4, §5

B16F10.9 cultures = assay: Cytotoxicity before and after sterilization (autoclaving) in B16F10.9 cultures; assay type: cell-based; conditions: Mus musculus
Description: Aqueous suspensions of TX-GAG particles were prepared according to the scheme of FIG. 7, up to and including step 5. Aqueous suspensions of paclitaxel alone (i.e., free paclitaxel) were also prepared. Samples were set aside, from both the TX-GAG and the free paclitaxel, and the remainder of each system was subjected to the following sterilization process: 12 minutes of autoclaving at 120° C. A critical question of whether this sterilization process is feasible for the TX-GAG formulations, is retention of drug activity. Therefore, the original samples set aside prior to the sterilization process, as well as the samples that underwent the process, were tested for their cytotoxicity, in B16F10.9 cultures, as described in Example 7.

[1] = 4 hours treatment, then 44 hours drug-free media, read-out: IC50 short protocol
[2] = 48 hours incubation with treatment media, read-out: IC50 long protocol

Compound: CC(=O)O[C@H]1C(=O)[C@@]2(C)[C@H]([C@H](OC(=O)c3ccccc3)[C@]3(O)C[C@H](OC(=O)[C@H](O)[C@@H](NC(=O)c4ccccc4)c4ccccc4)C(C)=C1C3(C)C)[C@]1(OC(C)=O)CO[C@@H]1C[C@@H]2O [Free Paclitaxel, paclitaxel]
- IC50 (B16F10.9 cells; Mus musculus, B16F10.9, ethanol as the lipid solvent, 4 hours treatment, then 44 hours drug-free media (Table 6), read-out: IC50 short protocol): 1800 nM
- cytotoxic activity after heating of ethanolic solutions (B16F10.9 cells; ethanolic paclitaxel solutions heated at 40-70° C., same cytotoxicity assay): did not impair the drug's cytotoxic activity
- IC50 (D122 cells; [1]): 900 nM
- IC50 (D122 cells; [2]): 250 nM
- IC50 (C-26 cells; C26, 4 hours treatment, then 44 hours drug-free media, read-out: IC50 short protocol): 3000 nM
- IC50 (C-26 cells; C26, 48 hours incubation with treatment media, read-out: IC50 long protocol): 3500 nM
- IC50 (PANC-1 cells; [1]): 300 nM
- IC50 (PANC-1 cells; [2]): 20 nM
- IC50 (SNU-251 cells; [1]): 600 nM
- IC50 (SNU-251 cells; [2]): 250 nM
- IC50 (B16F10.9 cultures; after sterilization: 12 minutes of autoclaving at 120° C. (FIG. 10)): ~300 nM
- IC50 (B16F10.9 cultures; before sterilization (FIG. 10)): ~300 nM
